Data taken from publication PMC7156612, “Olinciguat, an Oral sGC Stimulator, Exhibits Diverse Pharmacology Across Preclinical Models of Cardiovascular, Metabolic, Renal, and Inflammatory Disease” (Frontiers in Pharmacology, 2020).

What was measured:
[1] = Quantitative whole-body autoradiography in Long-Evans rats; type: in vivo, rat; details: single p.o. 3 mg/kg, 14C-derived radioactivity
Experimental: Quantitative whole-body autoradiography (QWBA) assays were performed at QPS, LLC (Newark, DE) as described previously (Solon et al., 2002). Male Long-Evans (LE) rats (218–262 g, n=11, Hilltop Lab Animals, Inc., Scottdale, PA) were studied. All rats were administered a single p.o. dose of [^14C]-olinciguat at a target dose of 3 mg/kg and approximately 200 µCi/kg formulated in PEG 400 in water (60:40 v/v). Immediately prior to euthanasia, blood was obtained via cardiac puncture for plasma radioactivity determinations by liquid scintillation counting. At each timepoint (1, 2, 4, 8, 12, 24, 48, 72, 96, 168, and 504 h post-dose), one rat was euthanized by immersion in a hexane/solid carbon dioxide bath and frozen for at least 15 min for QWBA analysis. Each frozen rat carcass was embedded in a 2% carboxymethylcellulose matrix with a microtome stage at −20°C. Concentrations of radioactivity were used to determine the concentration of compound equivalents in each tissue and in plasma using the Specific Activity of 66.7 µCi/mg of [^14C]-olinciguat. Whole body sections for each rat were mounted on a cardboard backing, covered with thin plastic wrap, and exposed along with calibration standards of [^14C]-glucose at 10 different concentrations (0.00096 to 7.8 µCi/g) to a ^14C-sensitive phosphor imaging plate (Fuji Biomedical, Stamford, CT). Imaging plates were scanned using the Typhoon 9410 image acquisition system (GE/Molecular Dynamics, Sunnyvale, CA, USA). Radioactivity concentration in tissues was quantified by image densitometry using MCID image analysis software (v. 7.0, Interfocus Imaging Ltd) and a standard curve constructed from the integrated response (molecular dynamics counts/mm^2) and the nominal concentrations of [^14C]-glucose standards. Tissue concentration data were obtained for virtually all tissues (see Supplemental Materials). The concentrations of radioactivity were expressed as the microgram equivalents of [^14C]-olinciguat per gram of sample. An upper and lower limit of quantification, determined by using the radioactive concentration of the highest and lowest calibration standards divided by the specific activity of the test article in formulation, was applied to the data. Phoenix® WinNonLin® v.6.3 was used to determine PK parameters, including maximal concentration (Cmax) and area under the curve of all observed points (AUCall). Tissue:plasma AUCall ratios were determined.

[2] = test system: vascular smooth muscle cells (VSMC) from rat aorta; experiment: Rat aorta vascular smooth muscle cell proliferation (3H-thymidine incorporation); type: cell-based; details: Rattus norvegicus, VSMC
Experimental: We explored the concentration response of olinciguat, tadalafil, and olinciguat in the presence of 1 μM tadalafil on rat aorta vascular smooth muscle proliferation, Tadalafil was used because it is a once-daily PDE5 inhibitor that, like the three-times-daily PDE5 inhibitor sildenafil, is approved for treatment of PAH and ED. Vascular smooth muscle cells (VSMC) from rat aorta (Lonza, R-ASM-580) were plated into a 96-well plate at 15,000 cells per well in DMEM:F12 containing 20% FBS and GA-1000 ([Gentamicin, Amphotericin B], Lonza, CC-40863) for 24 h at 37°C. Medium was removed and cells were washed once with 100 μl DMEM:F12 before adding 100 μl of DMEM:F12 and incubating for 24 h to induce quiescence. Cells were then cultured for 24 h in DMEM:F12 supplemented with 5% FBS, in the presence of test articles (vehicle, olinciguat, tadalafil) with 10 µM DETA. In the last 6 h, 0.2 μCi of ^3H-thymidine (American Radiolabeled Chemicals, ART 0178A) was added to each well to measure DNA synthesis by thymidine incorporation. Cells were washed once with HBSS and then trypsinized and transferred into FB filter plates (Millipore, MADVNOB). A rapid-filtration technique using a filtration apparatus (Millipore, MAVM0960R) with vacuum aspiration was used to harvest and rinse labeled cells (6× with 0.2 ml of chilled water). The radioactivity bound to the filters was counted with 80 µl of liquid scintillant (PerkinElmer, UltraGold MV, 6013159) in a scintillation counter (Perkin Elmer Microbeta instrument).
In the vascular smooth muscle cell proliferation experiment, a comparison between the IC50's for olinciguat alone vs oliniciguat in the presence of 1 µM tadalafil was performed by a two-tailed t-test using Log EC50 best fit values and SEs determined from a four-parameter nonlinear curve fit, assuming n=60 degrees of freedom.

AUCall blood-to-plasma ratio [1]: 0.73 | tissue:plasma AUCall ratio, adrenal gland [1]: 2.41 | tissue:plasma AUCall ratio, cecum [1]: 4.63 | tissue:plasma AUCall ratio, esophagus [1]: 2.01 | tissue:plasma AUCall ratio, kidney cortex [1]: 13.6 | tissue:plasma AUCall ratio, kidney medulla [1]: 5.14 | tissue:plasma AUCall ratio, liver [1]: 50.3 | tissue:plasma AUCall ratio, remaining eight tissues (all four measured regions of the brain, spinal cord, bone, eye lens) [1]: ≤ 0.1 | tissue:plasma AUCall ratio, small intestine [1]: 27.5 | tissue:plasma AUCall ratio, urinary bladder [1]: 2.62 | tissue:plasma ratio, aorta [1]: 0.92 | tissue:plasma ratio, brown adipose [1]: 1.16 | tissue:plasma ratio, heart [1]: 0.84 | tissue:plasma ratio, lung [1]: 0.86 | tissue:plasma ratio, skeletal muscle [1]: 0.52 | tissue:plasma ratio, white adipose [1]: 0.67
SMILES: NC(=O)[C@](O)(CNc1nc(-c2cc(-c3ccon3)n(Cc3ccccc3F)n2)ncc1F)C(F)(F)F [olinciguat, (R)-3,3,3-trifluoro-2-(((5-fluoro-2-(1-(2-fluorobenzyl)-5-(isoxazol-3-yl)-1H-pyrazol-3-yl)pyrimidin-4-yl)amino)methyl)-2-hydroxypropanamide]
IC50 ([2]; 5% FBS, 10 µM DETA, 3H-thymidine incorporation, 95% CI 22.4 to 39 nM, read-out: IC50, VSMC proliferation, olinciguat alone): 29.6 nM | EC50 ([2]; Table 2 summary, olinciguat alone, read-out: Rat vascular smooth muscle proliferation EC50, olinciguat concentration (range = 95% CI)): 22.4 to 39 nM
